What was measured:
[1] = test system: adhesion of RBC from sickle cell patients (ssRBC) to human umbilical vein endothelial cells (HUVEC); assay: Variable height flow chamber adhesion of ssRBC to endothelial cells, Example 4; assay type: cell-based; conditions: HUVEC stimulated with thrombin or TNF-alpha, treated thirty minutes at 37° C., versus control preparations
Description: The effects of PPS or sulodexide on sickle cell erythrocyte adhesion are evaluated by in vitro study according to procedures similar to those described in Telen et al. (Blood, 2004, 104:3774); Niihara et al (BMC Blood Disorders, 2005, 5:4); and Barabino et al (Blood, 1999, 93:1422-29). In brief, a variable height flow chamber is used to quantitate the effects of PPS on the adhesion of RBC from sickle cell patients (ssRBC) to endothelial cells. Human umbilical vein endothelial cells (HUVEC) are grown on gelatin coated glass slides until confluent. The HUVEC's are then stimulated with thrombin or TNF-alpha and washed with PBS with Ca^+2 and Mg^+2. Following activation, the endothelial cells are treated with various concentrations of PPS for thirty minutes at 37° C. The endothelial cells are then washed in PBS with Ca^+2 and Mg^+2, mounted onto the variable height flow chamber where the final testing unit is assembled. […] Adhesion is quantitated by counting the adherent ssRBCs in a field in 7 different locations along the slide in the direction of the flow. The height of the chamber at each of these 7 locations is measured so that the shear stress can be calculated; note that the typical range seen is between 0.3 to 2.7 dynes/cm^2. […]

[2] = test system: LNCaP; conditions: dependent on anchorage; cited from earlier work
[3] = test system: PC-3; conditions: PC-3, not dependent on anchorage; cited from earlier work
[4] = test system: Human SCD patients; assay: Computer-assisted intravital microscopy (CAIM) of conjunctival microcirculation, Example 1; assay type: in vivo; conditions: SCD patients hospitalized for VOC, high dose, relative to placebo group
From the text: Human SCD patients are enrolled to be studied by a non-invasive videotape of the conjunctival microcirculation. Recently, microvascular characteristics in SCD patients have been quantified using computer-assisted intravital microscopy (CAIM), a novel technology involving intravital video-microscopy coupled with imaging protocols, to study and analyze steady-state and vaso-occlusive crisis (VOC) microvascular characteristics in SCD (Cheung et al, Blood. 2002; 99:3999). During VOC, decreases in vascularity (“blanching”) occur as a result of vasoconstriction and diminished blood flow through the microvessels. […] The microvascular changes during VOC are transient and revert to steady-state values after crisis resolution. These specific reversals in VOC are used as the basis for this study to evaluate and quantify the effects of PPS on the microcirculation.
Because of the unique shape and form of conjunctival vessels, each vessel is easily identified and located to be re-studied. Each vessel serves as its own reference (control) to evaluate and quantify microvascular changes. […] CAIM is used to non-invasively videotape and longitudinally quantify the changes in venular diameter and red-cell velocity pre- and post-treatment of PPS, sulodexide or placebo at various time points post treatment.

[5] = test system: transplanted livers; conditions: livers pretreated with PPS; cited from earlier work
[6] = test system: DU145; conditions: DU145, dependent on anchorage; cited from earlier work
[7] = Wardle 1992; cited from earlier work
[8] = test system: tumor cell adhesion; conditions: direct measurements, Schamhart; cited from earlier work
[9] = test system: HUVEC cells; conditions: Barabino et al, Blood 1999; cited from earlier work
[10] = biological target: T1, immobilized P-selectin (Homo sapiens, UniProt P16109); conditions: Matsui, Blood 2002; cited from earlier work
T1 sequence (P16109 42-830): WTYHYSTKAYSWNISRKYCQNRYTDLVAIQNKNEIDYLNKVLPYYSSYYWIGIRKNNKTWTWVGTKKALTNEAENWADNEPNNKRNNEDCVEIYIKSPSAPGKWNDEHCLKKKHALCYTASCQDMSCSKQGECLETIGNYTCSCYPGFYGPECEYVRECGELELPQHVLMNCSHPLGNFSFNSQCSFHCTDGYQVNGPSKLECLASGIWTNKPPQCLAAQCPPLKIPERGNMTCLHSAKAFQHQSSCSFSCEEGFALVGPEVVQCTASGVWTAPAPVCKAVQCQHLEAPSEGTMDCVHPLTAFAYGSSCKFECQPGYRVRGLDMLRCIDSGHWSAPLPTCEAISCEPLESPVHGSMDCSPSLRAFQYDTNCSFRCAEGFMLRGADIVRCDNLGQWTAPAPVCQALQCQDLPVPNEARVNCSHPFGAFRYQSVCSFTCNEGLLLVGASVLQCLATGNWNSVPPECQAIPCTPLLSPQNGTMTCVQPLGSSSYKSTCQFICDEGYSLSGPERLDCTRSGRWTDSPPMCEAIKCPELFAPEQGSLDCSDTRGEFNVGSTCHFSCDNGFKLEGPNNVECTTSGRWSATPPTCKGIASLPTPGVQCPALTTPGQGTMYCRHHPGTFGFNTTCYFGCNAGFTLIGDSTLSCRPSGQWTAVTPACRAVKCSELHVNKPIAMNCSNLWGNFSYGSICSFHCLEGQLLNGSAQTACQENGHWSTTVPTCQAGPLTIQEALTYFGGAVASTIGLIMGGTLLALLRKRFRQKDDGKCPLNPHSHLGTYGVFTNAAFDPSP

[11] = test system: human endothelial cells; conditions: Gupta et al; cited from earlier work
[12] = test system: patients with sickle cell crises; conditions: four patients, 12-month self-administered intravenous minidose heparin vs 12 months off heparin; cited from earlier work

Pentosan polysulfate [PPS]
percentage of adherent cells [1]: reduction
growth and migration of tumor cell line [2]: inhibited
growth and migration of tumor cell line [3]: no effect
microvascular flow (venular diameter and red-cell velocity by CAIM) [4]: significant improvement in microvascular flow
leukocytes adhering to the vascular wall [5]: significantly fewer
reperfusion edema [5]: no reperfusion edema
growth and migration of tumor cell line [6]: inhibited
anticoagulant potency relative to heparin [7]: about one-fifteenth
tumor cell adhesion [8]: inhibited

chondroitin sulfate
sickle cell adhesion to HUVEC cells [9]: inhibited

dextran sulfate
sickle cell adhesion to HUVEC cells [9]: inhibited

heparin
in vitro flow adhesion of sickle cells to immobilized P-selectin [10]: inhibited
sickle erythrocyte adhesion to human endothelial cells in vitro [11]: inhibited
pain reduction [12]: improvement in pain reduction
sickle cell adhesion to HUVEC cells [9]: inhibited

heparin sulfate
sickle cell adhesion to HUVEC cells [9]: did not

low molecular weight heparin
in vitro flow adhesion of sickle cells to immobilized P-selectin [10]: not low molecular weight heparin proved to be effective

— US20080214480A1, “Method for Treating Sickle Cell Disease and Sickle Cell Disease Sequalae” (TRF Pharma, Inc., priority 2005, published 2008)
